One experiment has as its target CDK2/CycA2 (Homo sapiens, UniProt P24941). Kind of experiment: CDK2 mobility shift assay (enzymatic activity of CDK2/CycA2). Type of experiment: biochemical. The conditions noted are these: 1.25 nM CDK2/CycA2, 37 μM ATP, FL Peptide 18, 120 min at room temperature; read-out: CDK2 IC50. The protocol:
(§1) Compound potency was measured via a change in the enzymatic activity of CDK5/p25, and optionally of CDK2/CycA2. Enzymes, CDK5/p25 and CDK2/CycA2, were sourced from Carna Biosciences (Cat #04-106 and 04-103, respectively). Test compound stocks were diluted in 100% DMSO and serially diluted 3-fold in a 384-well plate using a TECAN EVO200 (TECAN). Staurosporine was used as a reference control compound in all assays.
(§2) Twenty nL of compound were transferred into a 384-well plate (Greiner 781201) using an Echo550 (Labcyte Inc). Enzyme, ATP, and 10 mM MgCl2 were preincubated at room temperature with the compound in assay buffer (50 mM HEPES pH 7.5, 1 mM EGTA, 0.01% Brij-35, 0.05% BSA, 2 mM DTT) for 30 minutes. Peptide substrate (FL peptide 29 (Perkin Elmer) for CDK5/p25; FL Peptide 18 (Perkin Elmer) for CDK2/CycA2) was added to initiate the reaction. The final assay contained 0.154 nM CDK5/p25 or 1.25 nM CDK2/CycA2, […] (for CDK5/p25) or 37 μM (for CDK2/CycA2) ATP, and 1.5 μM of the appropriate peptide substrate. The final DMSO concentration was <1%.
(§3) The CDK5/p25 reaction was incubated at room temperature for 60 min. The CDK2/CycA2 reaction was incubated at room temperature for 120 min. The reactions were quenched by the addition of 70 μL stopping buffer containing 0.5 M EDTA. Samples were analyzed using the EZ Reader (Perkin Elmer).
(§4) The results were expressed as % vehicle, where % vehicle=100×(U−C2)/(C1−C2), where U is the signal of sample, C1 is the average of the high controls (signal with no compound added), and C2 is the average of low controls (signal with the buffer in place of enzyme). The ICso is determined by fitting the percentage of inhibition as a function of compound concentrations using a 4-parameter fit defined as follows.
(§5) Y=Bottom+(Top−Bottom)/(1+10^((LobIC50-X)*Hill Slope)), where X is the log of the compound concentration, Y is the % vehicle or response at X, Top and Bottom are the plateaus in the same units as Y, and the Hill's Slope is unitless, and the ICso is the half-maximal inhibitory concentration.

The target of another experiment is CDK5/p25 (Homo sapiens, UniProt Q00535). Kind of experiment: CDK5 mobility shift assay (enzymatic activity of CDK5/p25). Type of experiment: biochemical. The conditions noted are these: for IC50: 0.154 nM CDK5/p25, FL peptide 29, 60 min at room temperature, read-out: CDK5 IC50; for CDK5/CDK2 specificity: fold more active against CDK5 than CDK2. The protocol: as §1, §2, §3, §4, §5
Chain of CDK5/p25 (Q00535 whole entry): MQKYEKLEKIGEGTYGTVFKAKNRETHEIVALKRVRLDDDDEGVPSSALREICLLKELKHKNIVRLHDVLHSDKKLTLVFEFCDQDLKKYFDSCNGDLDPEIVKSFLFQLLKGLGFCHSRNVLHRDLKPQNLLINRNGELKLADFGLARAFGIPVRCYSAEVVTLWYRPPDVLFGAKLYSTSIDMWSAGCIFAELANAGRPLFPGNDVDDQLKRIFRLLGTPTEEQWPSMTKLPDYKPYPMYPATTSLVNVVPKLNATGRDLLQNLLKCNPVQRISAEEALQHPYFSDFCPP
Chain of CDK5/p25 (Q15078 99-307 partner limits assumed): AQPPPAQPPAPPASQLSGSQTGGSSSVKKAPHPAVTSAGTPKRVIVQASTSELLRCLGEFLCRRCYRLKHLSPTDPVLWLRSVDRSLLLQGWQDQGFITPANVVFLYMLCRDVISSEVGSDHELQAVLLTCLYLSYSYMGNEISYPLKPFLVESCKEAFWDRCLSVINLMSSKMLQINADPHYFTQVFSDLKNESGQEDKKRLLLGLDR

One may read the IC50 as the midpoint of a concentration-inhibition curve. In the case of `COc1cc(-c2ccc(Nc3cc4nc(S(=O)(=O)C5CCN(CC6COC6)CC5)ccc4cn3)c(F)c2)ccn1` [Compound 328], at CDK2/CycA2, the IC50 is > 1 µM. For the same compound, on CDK5/p25, the IC50 was < 0.01 µM and the CDK5/CDK2 specificity result is “+++ (greater than 100-fold more active against CDK5 than CDK2)”.
Take `CCc1cccc(Nc2cc3nc(C(C)(O)C4CCN(C)CC4)ccc3cn2)c1` (stereo not drawn) [Compound 373]: the IC50 on CDK2/CycA2 was 0.01 to 0.1 µM; at CDK5/p25 it was < 0.01 µM. For the same compound, on CDK5/p25, the CDK5/CDK2 specificity entry was “++ (greater than 10-fold and less than or equal to 100-fold more active against CDK5 than CDK2)”.
As to `CN1CCC(S(=O)(=O)c2ccc3cnc(Nc4ccon4)cc3n2)CC1` [Compound 269], at CDK2/CycA2, the IC50 is 0.1 to 1 µM. For the same compound, at CDK5/p25, the IC50 lay within 0.01 to 0.1 µM and the CDK5/CDK2 specificity result is “+ (10-fold or less more active against CDK5 than CDK2)”.
Take `COC(c1ccc2cnc(Nc3ccc(-n4cccn4)cc3F)cc2n1)C1CCN(C)CC1` (single isomer, unassigned) [Compound 391, N-[2-fluoro-4-(pyrazol-1-yl)phenyl]-2-[methoxy(1-methylpiperidin-4-yl)methyl]-1,6-naphthyridin-7-amine]: at CDK2/CycA2, the IC50 is > 1 µM. Besides, on CDK5/p25, the IC50 lay within 0.1 to 1 µM; the CDK5/CDK2 specificity entry was “++ (greater than 10-fold and less than or equal to 100-fold more active against CDK5 than CDK2)”.
For `COc1cccc(-c2ccc(Nc3cc4nc(S(=O)(=O)C5CCN(CC6COC6)CC5)ccc4cn3)c(F)c2)n1` [Compound 336], at CDK2/CycA2, the IC50 lay within 0.1 to 1 µM. On CDK5/p25, the IC50 was < 0.01 µM and the CDK5/CDK2 specificity result is recorded as “+++ (greater than 100-fold more active against CDK5 than CDK2)”.
In the case of `N#Cc1cccc(-c2ccc(Nc3cc4nc(C(O)C5CCN(CCO)CC5)ccc4cn3)c(F)c2)c1` (single isomer, unassigned) [Compound 250, 3′-fluoro-4′-[(2-[hydroxy[1-(2-hydroxyethyl)piperidin-4-yl]methyl]-1,6-naphthyridin-7-yl)amino]-[1,1′-biphenyl]-3-carbonitrile], the IC50 on CDK2/CycA2 is 0.1 to 1 µM. For the same compound, on CDK5/p25, the IC50 was < 0.01 µM; the CDK5/CDK2 specificity entry is “++ (greater than 10-fold and less than or equal to 100-fold more active against CDK5 than CDK2)”.
Regarding `CN1CCC(S(=O)(=O)c2ccc3cnc(Nc4ccc(N5CCC(O)CC5)cc4)cc3n2)CC1` [Compound 304], the results for the IC50 on CDK2/CycA2 and on CDK5/p25 were 0.1 to 1 µM and < 0.01 µM, respectively. Moreover, the CDK5/CDK2 specificity result on CDK5/p25 was “++ (greater than 10-fold and less than or equal to 100-fold more active against CDK5 than CDK2)”.
As to `Cc1ccc(Nc2cc3nc(S(=O)(=O)C4CCN(C)CC4)ccc3cn2)c(F)c1` [Compound 294], the IC50 at CDK2/CycA2 was 0.1 to 1 µM. Moreover, on CDK5/p25, the IC50 was < 0.01 µM and the CDK5/CDK2 specificity result was “+++ (greater than 100-fold more active against CDK5 than CDK2)”.
In the case of `OCCN1CCC(C(O)c2ccc3cnc(Nc4ccc(-n5ccc(CO)n5)cc4F)cc3n2)CC1` (single isomer, unassigned) [Compound 255, 2-(4-[[7-([2-fluoro-4-[3-(hydroxymethyl)pyrazol-1-yl]phenyl]amino)-1,6-naphthyridin-2-yl](hydroxy)methyl]piperidin-1-yl)ethanol], the IC50 was > 1 µM on CDK2/CycA2 and 0.1 to 1 µM on CDK5/p25. In addition, on CDK5/p25, the CDK5/CDK2 specificity entry is “++ (greater than 10-fold and less than or equal to 100-fold more active against CDK5 than CDK2)”.
As to `CN1CCC(S(=O)(=O)c2ccc3cnc(Nc4ccc(N5CCN(C)CC5)cc4)cc3n2)CC1` [Compound 270], the IC50 on CDK2/CycA2 is 0.1 to 1 µM; on CDK5/p25, < 0.01 µM. Moreover, on CDK5/p25, the CDK5/CDK2 specificity entry is “++ (greater than 10-fold and less than or equal to 100-fold more active against CDK5 than CDK2)”.
For `CN1CCC(S(=O)(=O)c2ccc3cnc(Nc4ccc(N5CCS(=O)(=O)CC5)cc4)cc3n2)CC1` [Compound 296], the IC50 on CDK2/CycA2 was in the range of 0.01 to 0.1 µM. Besides, at CDK5/p25, the IC50 is < 0.01 µM; the CDK5/CDK2 specificity result is “++ (greater than 10-fold and less than or equal to 100-fold more active against CDK5 than CDK2)”.
As to `CN1CCC([C@@](C)(O)c2ccc3cnc(Nc4ccc(-n5cc(C(=O)O)cn5)cc4F)cc3n2)CC1` [Compound 362, 1-[3-fluoro-4-([2-[(1R)-1-hydroxy-1-(1-methylpiperidin-4-yl)ethyl]-1,6-naphthyridin-7-yl]amino)phenyl]pyrazole-4-carboxylic acid], the IC50 was 0.01 to 0.1 µM on CDK2/CycA2 and < 0.01 µM at CDK5/p25. For the same compound, the CDK5/CDK2 specificity entry at CDK5/p25 is “++ (greater than 10-fold and less than or equal to 100-fold more active against CDK5 than CDK2)”.
As to `CN(C)Cc1cccc(Nc2cc3nc(S(=O)(=O)C4CCN(C)CC4)ccc3cn2)c1` [Compound 280], at CDK2/CycA2, the IC50 was in the range of 0.1 to 1 µM. Also, at CDK5/p25, the IC50 is 0.01 to 0.1 µM and the CDK5/CDK2 specificity result is recorded as “+ (10-fold or less more active against CDK5 than CDK2)”.
Turning to `CN1CCC(S(=O)(=O)c2ccc3cnc(Nc4ccccc4)cc3n2)CC1` [Compound 385], the figures for the IC50 at CDK2/CycA2 and at CDK5/p25 were 0.01 to 0.1 µM and < 0.01 µM, respectively. The CDK5/CDK2 specificity entry on CDK5/p25 was “++ (greater than 10-fold and less than or equal to 100-fold more active against CDK5 than CDK2)”.
In the case of `N#CCN(c1ccc2cnc(Nc3ccc(-n4ccc(CO)n4)cc3F)cc2n1)C1CCNCC1` [Compound 162, 2-[[7-([2-fluoro-4-[3-(hydroxymethyl)pyrazol-1-yl]phenyl]amino)-1,6-naphthyridin-2-yl](piperidin-4-yl)amino]acetonitrile], the 50% inhibitory concentration (IC50) at CDK2/CycA2 was > 1 µM. Besides, at CDK5/p25, the IC50 was 0.1 to 1 µM; the CDK5/CDK2 specificity entry is “++ (greater than 10-fold and less than or equal to 100-fold more active against CDK5 than CDK2)”.
As to `O=C(O)CN(c1ccc2cnc(Nc3ccc(-n4ccc(CO)n4)cc3F)cc2n1)[C@H]1CC[C@H](O)CC1` [Compound 110, [[7-([2-fluoro-4-[3-(hydroxymethyl)pyrazol-1-yl]phenyl]amino)-1,6-naphthyridin-2-yl][(1r,4r)-4-hydroxycyclohexyl]amino]acetic acid], at CDK2/CycA2, the IC50 is > 1 µM. In addition, on CDK5/p25, the IC50 was 0.1 to 1 µM and the CDK5/CDK2 specificity entry is “+ (10-fold or less more active against CDK5 than CDK2)”.
`CN1CCC(C(F)(F)c2ccc3cnc(Nc4ccc(-n5cccn5)cc4F)cc3n2)CC1` [Compound 291, 2-[difluoro(1-methylpiperidin-4-yl)methyl]-N-[2-fluoro-4-(pyrazol-1-yl)phenyl]-1,6-naphthyridin-7-amine]: the IC50 at CDK2/CycA2 was in the range of 0.01 to 0.1 µM. On CDK5/p25, the IC50 is < 0.01 µM; the CDK5/CDK2 specificity entry was “++ (greater than 10-fold and less than or equal to 100-fold more active against CDK5 than CDK2)”.
On to `CN1CCC(S(=O)(=O)c2ccc3cnc(Nc4cccc(C#CC(C)(C)O)c4)cc3n2)CC1` [Compound 256], for which the IC50 on CDK2/CycA2 is 0.01 to 0.1 µM. On CDK5/p25, the IC50 is < 0.01 µM and the CDK5/CDK2 specificity entry was “+++ (greater than 100-fold more active against CDK5 than CDK2)”.
For `CN1CCC(C(C)(O)c2ccc3cnc(Nc4ccc(-c5ccc(=O)n(C)c5)cc4F)cc3n2)CC1` (stereo not drawn) [Compound 346], at CDK2/CycA2, the IC50 was > 1 µM. For the same compound, at CDK5/p25, the IC50 was 0.1 to 1 µM; the CDK5/CDK2 specificity result was “++ (greater than 10-fold and less than or equal to 100-fold more active against CDK5 than CDK2)”.
Turning to `COc1cc(-c2ccc(Nc3cc4nc(C(C)C5CCN(C)CC5)ccc4cn3)c(F)c2)ccn1` (stereo not drawn) [Compound 333], the IC50 on CDK2/CycA2 lay within 0.1 to 1 µM. At CDK5/p25, the IC50 was < 0.01 µM and the CDK5/CDK2 specificity result is on record as “+++ (greater than 100-fold more active against CDK5 than CDK2)”.

Source of the values: US20220389009A1, “SUBSTITUTED 1,6-NAPHTHYRIDINE INHIBITORS OF CDK5” (Goldfinch Bio, Inc., priority 2019, published 2022).
